We go through one molecule from patent publication US11834401B2, “Treating and preventing diseases by modulating cell mechanics” (THE JOHNS HOPKINS UNIVERSITY, priority 2013, dated 2023).

Common to all, as to type: cell-based, human
Series [1] concerns Panc10.05 tissue spheroids. Description: Tissue spheroid dissemination and cortical actin structure. The method, then:
Tissue spheroids were grown by plating Panc10.05 cells on a drop of Matrigel (Becton-Dickinson) in an 8-well slide chamber (6,500 cells per well) and grown in RPMI 1640 media (2% serum, 2% matrigel, and 10 ng/ml EGF). Spheroids were grown for 14 days with regular media changes, then aspirated off the surface of the matrigel, washed with ice-cold PBS with mild centrifugation ([…], 5 min). For all 2D spreading assays, spheroids were then plated on 50 µg/ml collagen-coated 8-well coverslips (MatTek) and incubated for 48 hrs in complete PANC media with 500 nM 4-HAP or PBS control. For 3D invasion assays, spheroids were resuspended in a 1.5 mg/ml collagen solution (Life Technologies) and then plated in 8-well chambered coverslips. […] All spheroid samples were fixed in 4% paraformaldehyde for 15 min at 25° C. and permeabilized in 0.1% Triton X-100 for 15 min at 25° C. The actin cytoskeleton was visualized with rhodamine-phalloidin ([…]) for 30 min. Two-dimensional spreading was visualized with Olympus Spinning disk microscope (40× oil objective, 1.30NA) or Nikon-NSIM (100× objective, 1.4NA) with an Andor EMCCD camera controlled by NIS-Elements software. Three-dimensional invasion through collagen was visualized with an Olympus Spinning Disk microscope (20× air, 0.4NA).
Quantification of 2D spheroids plated on a thin layer of collagen was performed using a custom-designed Matlab script (Mathworks, Natick, Mass.). A maximum intensity projection of 20 z-slices was extracted from each of the images and converted to 16-bit grayscale before enhancing the pixel intensity (Matlab command: histeq). The enhanced image was then segmented into foreground and background using the Chan-Vese method (activecountour), followed by filtering of small regions (bwareaopen), and morphological erosion (imerode). The boundary from this object was then obtained (bwboundary) and average background intensity was subtracted. This method was used for more than 80% of the images. […] This option allowed the user to select a region of interest surrounding the outer edge of the spheroid (roipoly). Anything outside of this boundary was masked and subsequently not considered (regionfill). Following this, a similar binarization/background subtraction regime was implemented on the unmasked region and the boundary was traced.
For each point along the boundary, a line perpendicular to the edge was computed and the intensity along this line was used to linearize the cortex. The resultant matrix was converted into a grayscale image. The Hough Transform was used to determine the continuity of the actin belt along the edge of the cortex. Linearized cortex images were binarized using a threshold chosen to best differentiate belt from non-belt for each set of images (imbinarize), followed by filtering of small regions (bwareaopen), and morphological dilation (imdilate). The Hough Transform was performed on this image (hough), and Hough peaks and lines identified (houghpeaks, houghlines). These were used to create a continuity score defined by (E Hough line lengths)/(number of lines+length of image). In this metric, higher scores indicate a more continuous actin belt at the cortex. Additionally, we computed: a coarseness index of the cortex (std2) to describe actin distribution, the percentage of white pixels of the binarized image to characterize actin belt thickness, and the ratio of white pixels to gray pixels (greater than 0.15) to describe the distribution of fluorescence.

A further series has as its system NMIIA, NMIIC, ACTN4. Description: Western analysis of mechanobiome protein expression. The following applies: Panc10.05 cells, overnight treatment.
A further series has as its system Panc10.05 cells. Put plainly: Micropipette aspiration effective cortical tension (Teff), knockdown lines. On the procedure: The instrumental and experimental setups have been described previously. MPA assays and RT-DC measurements were all carried out in growth media for cortical tension measurements or Leibovitz L-15 media (Gibco) when fluorescence was quantified.
Pressure was applied to the cell cortex with a micropipette (6- to 8-μm radius; Rp) to the equilibrium pressure (ΔP), where the length of the cell inside the pipette (Lp) was equal to Rp. The effective cortical tension (Teff) was calculated by applying the Young-Laplace equation: ΔP=2Teff (1/Rp−1/Rc), where Rc is the radius of the cell and ΔP is the equilibrium pressure when Lp=Rp. Images were collected with an Olympus IX81 microscope equipped with MetaMorph software and analyzed using ImageJ (rsb.info.nih.gov/ij).

A further series has as its system ASPC-1 cells. Put plainly: Viability assay. The following applies: 50 nM, 500 nM.
A further series deals with HL-60 cells. Put plainly: Micropipette aspiration cortical tension. The following applies: 500 nM, 1 hr. The method, then:
The instrumental and experimental setups have been previously described (Effler J C, et al., 2006; Kee Y-S, et al., 2013). Micropipette aspiration assays were all carried out in growth media with 0.1% DMSO. For cortical tension measurements of Dictyostelium cells, pressure was applied to the cell cortex with a micropipette (2-3 m radius, Rp) to the equilibrium pressure (ΔP) where the length of the cell inside the pipette (Lp) was equal to Rp. The effective cortical tension (Teff) was calculated by applying the Young-Laplace equation: ΔP=2Teff(1/Rp-1/Rc), where Rc is the radius of the cell and ΔP is the equilibrium pressure when Lp=Rp (Derganc J, et al., 2000; Octtaviani E, et al., 2006). For creep tests on mammalian strains, a constant aspiration stress was applied over 60 s. The micropipette radius was 3.5-4.5 m. For quantification, the Lp/Rp ratio values was measured every two seconds and plotted as a function of time. A10.7 and HEK293 cells could only be aspirated at a low pressure range (0.15 nN/μm^2), while HPDE, ASPC-1, and HL-60 cells could be aspirated at higher pressure ranges (0.25 nN/μm^2) because they were stiffer.

Take `CC(=O)c1ccc(O)cc1` [4-HAP, 4-hydroxyacetophenone]: the dissemination from spheroids result in series [1] (NMIIA knockdown, 3D collagen I, 24 hours) is “decreased”; in series [1] (control knockdown, 3D collagen I, 24 hours), “decreased”; in series [1] (myosin IIC-depleted spheroids) it was “no effect was observed”. Also, the “actin band continuity score” value in series [1] (control spheroids) is recorded as “decreased upon treatment with 4-HAP”; in series [1] (shIIA spheroids, p=0.01), “increased significantly”. Moreover, the “cortex coverage by actin bands” value in series [1] (control spheroids) is reported as “decreased cortex coverage”; in series [1] (myo IIA knockdowns), “the coverage increased”; in series [1] (myo IIC knockdowns) it was “unaffected by the treatment of 4-HAP”. For the same molecule, the “increase in median percentage staining of actin at tissue edge” value in series [1] (myosin IIA knockdown spheroids, 2D) is reported as 2 fold. Also, the actin belt formation entry in series [1] (when myosin IIC is present) is “Actin belts are formed”. Besides, the “expression of NMIIA, NMIIC, or ACTN4” value with NMIIA, NMIIC, ACTN4 is reported as “does not affect the expression”. For the same molecule, the effective cortical tension entry with Panc10.05 cells (myosin IIA knockdown cells) was “increases the cortical tension in myosin IIA knockdown cells”; in the series on Panc10.05 cells (myosin IIC knockdown cells) it was “unchanged by 4-HAP challenge”; with Panc10.05 cells (sh-control cells, 500-nM) it was “increases the cortical tension of sh-control cells”. In the series on ASPC-1 cells, the “viability vs DMSO control” value was “no difference over DMSO control”. For the same molecule, the cortical tension result with HL-60 cells is on record as “does not alter the cortical tension”.
